Measurements reported in the supplement of paper PMC12137928.
Structures can show the parent of a compound that is named as a salt.

System: HCT116
Details: 72 h
Method in brief: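 Luminescence was read with CellTiter-Glo in HCT116 cells seeded at 250 per well in 1536-well plates. Signals were scaled between vehicle at 0% and positive control at -100%, then pattern-corrected. IC50 and maximal efficacy were obtained by fitting a four-parameter Hill equation.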

Compound | IC50 cell viability (ICRF193 0 nM) [µM] | IC50 cell viability (ICRF193 200 nM) [µM]
O=C(OCC(O)CO)c1ccccc1Nc1ccnc2cc(Cl)ccc12 (stereo not given) [Glafenine hydrochloride] | > 45.8 | > 45.8
Cc1ccc(S(=O)(=O)NC(=O)NN2CC3CCCC3C2)cc1 (stereo not given) [Gliclazide] | > 45.8 | > 45.8
CCC1=C(C)CN(C(=O)NCCc2ccc(S(=O)(=O)NC(=O)N[C@H]3CC[C@H](C)CC3)cc2)C1=O [Glimepiride] | > 45.8 | > 45.8
Cc1cnc(C(=O)NCCc2ccc(S(=O)(=O)NC(=O)NC3CCCCC3)cc2)cn1 [Glipizide] | > 45.8 | > 45.8
COc1ccc2c(c1)C(=O)N(CCc1ccc(S(=O)(=O)NC(=O)NC3CCCCC3)cc1)C(=O)C2(C)C [Gliquidone] | > 45.8 | > 45.8
O=C1O[C@H](CO)[C@@H](O)[C@H](O)[C@H]1O [Gluconolactone] | > 45.8 | > 45.8
N[C@H]1C(O)O[C@H](CO)[C@@H](O)[C@@H]1O (stereo not given in full) [Glucosamine hydrochloride] | > 45.8 | > 45.8
NC(=O)[C@H]1O[C@@H](O)[C@H](O)[C@@H](O)[C@@H]1O [Glucuronamide] | > 45.8 | > 45.8
O=CCCCC=O [Glutaraldehyde] | > 45.8 | > 45.8
COc1ccc(Cl)cc1C(=O)NCCc1ccc(S(=O)(=O)NC(=O)NC2CCCCC2)cc1 [Glybenclamide] | > 45.8 | > 45.8
CC(C)(C)c1nnc(NS(=O)(=O)c2ccccc2)s1 [Glybuzole] | > 45.8 | > 45.8
Nc1ccccc1C(=O)OCC(O)CO (stereo not given) [Glyceryl 1-(2-aminobenzoate)] | > 45.8 | > 45.8
O=C(NN1CCCC1)NS(=O)(=O)c1ccc(Cl)cc1 [Glyclopyramide] | > 45.8 | > 45.8
C[N+]1(C)CCC(OC(=O)C(O)(c2ccccc2)C2CCCC2)C1 (stereo not given) [Glycopyrrolate bromide] | > 45.8 | > 45.8
COCCOc1cnc(NS(=O)(=O)c2ccccc2)nc1 [Glymidine sodium] | > 45.8 | > 45.8
CC(C)C[C@H](NC(=O)[C@@H](COC(C)(C)C)NC(=O)[C@H](Cc1ccc(O)cc1)NC(=O)[C@H](CO)NC(=O)[C@H](Cc1c[nH]c2ccccc12)NC(=O)[C@H](Cc1cnc[nH]1)NC(=O)[C@@H]1CCC(=O)N1)C(=O)N[C@@H](CCCNC(=N)N)C(=O)N1CCC[C@H]1C(=O)NNC(N)=O [Goserelin (acetate)] | > 45.8 | > 45.8
CN1C2CCCC1CC(NC(=O)c1nn(C)c3ccccc13)C2 (stereo not given) [Granisetron (AB-1001)] | > 45.8 | > 45.8
Cc1c(F)c(N2CCNC(C)C2)cc2c1c(=O)c(C(=O)O)cn2C1CC1 (stereo not given) [Grepafloxacin hydrochloride] | > 45.8 | > 45.8
COc1ccccc1OC(=O)Oc1ccccc1OC [Guaiacol carbonate] | > 45.8 | > 45.8
COc1ccccc1O [Guaiacol] | > 45.8 | > 45.8

Compound | IC50 cell viability (ICRF193 0 nM) [µM] | IC50 cell viability (ICRF193 200 nM) [µM]
Cc1ccc(C(C)C)cc2c(C)ccc1-2 [Guaiazulene] | > 45.8 | > 45.8
COc1ccccc1OCC(O)CO (stereo not given) [Guaifenesin] | > 45.8 | > 45.8
N=C(N)NCC1COC2(CCCCC2)O1 (stereo not given) [Guanadrel sulfate] | > 45.8 | > 45.8
N=C(N)NCCN1CCCCCCC1 [Guanethidine sulfate] | > 45.8 | > 45.8
N=C(N)NC(=O)Cc1c(Cl)cccc1Cl [Guanfacine hydrochloride] | > 45.8 | > 45.8
N=C(N)NCCCCCCC(=O)NC(O)C(=O)NCCCCNCCCN (stereo not given) [Gusperimus trihydrochloride] | > 45.8 | > 45.8
CCCCCCCCCC(=O)OC1(c2ccc(Cl)cc2)CCN(CCCC(=O)c2ccc(F)cc2)CC1 [HALOPERIDOL DECANOATE] | > 45.8 | > 45.8
FC(F)(F)C(Cl)Br (stereo not given) [HALOTHANE] | > 45.8 | > 45.8
CC1(C)S[C@@H]2[C@H](N3C(=O)[C@@H](c4ccccc4)NC3(C)C)C(=O)N2[C@H]1C(=O)O [HETACILLIN POTASSIUM] | > 45.8 | > 45.8
C[N+]1(C)[C@@H]2CC[C@H]1C[C@@H](OC(=O)C(O)c1ccccc1)C2 (stereo not given in full) [HOMATROPINE METHYLBROMIDE] | > 45.8 | > 45.8
CCC(=O)O[C@]1(C(=O)COC(C)=O)CC[C@H]2[C@@H]3CCC4=CC(=O)CC[C@]4(C)[C@H]3[C@@H](O)C[C@@]21C [HYDROCORTISONE ACEPONATE] | > 45.8 | > 45.8
CC(N)Cc1ccc(O)cc1 (stereo not given) [HYDROXYAMPHETAMINE HYDROBROMIDE] | > 45.8 | > 45.8
CN1[C@@H]2CC[C@H]1C[C@@H](OC(=O)[C@H](CO)c1ccccc1)C2 [HYOSCYAMINE] | > 45.8 | > 45.8
CC1(C)O[C@@H]2C[C@H]3[C@@H]4CCC5=CC(=O)CC[C@]5(C)[C@@]4(F)[C@@H](O)C[C@]3(C)[C@]2(C(=O)CCl)O1 [Halcinonide] | > 45.8 | > 45.8
CCC(=O)O[C@]1(C(=O)CCl)[C@@H](C)C[C@H]2[C@@H]3C[C@H](F)C4=CC(=O)C=C[C@]4(C)[C@@]3(F)[C@@H](O)C[C@@]21C [Halobetasol Propionate] | > 45.8 | > 45.8
O=C(CC1NCCCC1O)Cn1cnc2cc(Br)c(Cl)cc2c1=O (stereo not given) [Halofuginone hydrochloride] | > 45.8 | > 45.8
O=C(CCCN1CCC(O)(c2ccc(Cl)cc2)CC1)c1ccc(F)cc1 [Haloperidol] | > 45.8 | > 45.8
Cc1c(Cl)c(=O)oc2cc(OP(=O)(OCCCl)OCCCl)ccc12 [Haloxon] | > 45.8 | > 45.8
CCCCCCCCCCCCCCCC(=O)OC(C)C [Hexadecanoic acid, 1-methylethyl ester] | > 45.8 | > 45.8
C[N+](C)(CCCCCC[N+](C)(C)C1c2ccccc2-c2ccccc21)C1c2ccccc2-c2ccccc21 [Hexafluorenium dibromide] | > 45.8 | > 45.8

Compound | IC50 cell viability (ICRF193 0 nM) [µM] | IC50 cell viability (ICRF193 200 nM) [µM]
O=C(O)CCCCC(=O)O [Hexanedioic acid] | > 45.8 | > 45.8
CCCCC(CC)CN1CN(CC(CC)CCCC)CC(C)(N)C1 (stereo not given) [Hexetidine] | > 45.8 | > 45.8
CN1C(=O)NC(=O)C(C)(C2=CCCCC2)C1=O (stereo not given) [Hexobarbital] | > 45.8 | > 45.8
C[N+]1(C)CCN(CC(O)(c2ccccc2)C2CCCCC2)CC1 (stereo not given) [Hexocyclium] | > 45.8 | > 45.8
Oc1ccc(C(O)CNCCCCCCNCC(O)c2ccc(O)c(O)c2)cc1O (stereo not given) [Hexoprenaline sulfate] | > 45.8 | > 45.8
CC(CNC1CCCCC1)OC(=O)c1ccccc1 (stereo not given) [Hexylcaine hydrochloride] | > 45.8 | > 45.8
O=C(O)CNC(=O)c1ccccc1 [Hippuric acid] | > 45.8 | > 45.8
NCCc1c[nH]cn1 [Histamine dihydrochloride] | > 45.8 | > 45.8
C/C=C1\[C@H]2C=C(C)C[C@]1(N)c1ccc(=O)[nH]c1C2 [Huperzine A] | > 45.8 | > 45.8
NS(=O)(=O)c1cc2c(cc1Cl)NCNS2(=O)=O [Hydrochlorothiazide] | > 45.8 | > 45.8
CCN(CC)CC(=O)OCC(=O)[C@@]1(O)CC[C@H]2[C@@H]3CCC4=CC(=O)CC[C@]4(C)[C@H]3[C@@H](O)C[C@@]21C [Hydrocortamate] | > 45.8 | > 45.8
CCCC(=O)O[C@]1(C(=O)CO)CC[C@H]2[C@@H]3CCC4=CC(=O)CC[C@]4(C)[C@H]3[C@@H](O)C[C@@]21C [Hydrocortisone 17-butyrate] | > 45.8 | > 45.8
C[C@]12CCC(=O)C=C1CC[C@@H]1[C@@H]2[C@@H](O)C[C@@]2(C)[C@H]1CC[C@]2(O)C(=O)COC(=O)CCC(=O)O [Hydrocortisone 21-hemisuccinate sodium salt] | > 45.8 | > 45.8
C[C@]12CCC(=O)C=C1CC[C@@H]1[C@@H]2[C@@H](O)C[C@@]2(C)[C@H]1CC[C@]2(O)C(=O)COP(=O)(O)O [Hydrocortisone Sodium Phosphate] | > 45.8 | > 45.8
CC(=O)OCC(=O)[C@@]1(O)CC[C@H]2[C@@H]3CCC4=CC(=O)CC[C@]4(C)[C@H]3[C@@H](O)C[C@@]21C [Hydrocortisone acetate] | > 45.8 | > 45.8
CCCC(=O)O[C@]1(C(=O)COC(=O)CC)CC[C@H]2[C@@H]3CCC4=CC(=O)CC[C@]4(C)[C@H]3[C@@H](O)C[C@@]21C [Hydrocortisone buteprate] | > 45.8 | > 45.8
CCCCC(=O)O[C@]1(C(=O)CO)CC[C@H]2[C@@H]3CCC4=CC(=O)CC[C@]4(C)[C@H]3[C@@H](O)C[C@@]21C [Hydrocortisone valerate] | > 45.8 | > 45.8
C[C@]12CCC(=O)C=C1CC[C@@H]1[C@@H]2[C@@H](O)C[C@@]2(C)[C@H]1CC[C@]2(O)C(=O)CO [Hydrocortisone] | > 45.8 | > 45.8
COc1c2c(cc3c1OCO3)CCN(C)C2 [Hydrocotarnine hydrobromide] | > 45.8 | > 45.8
NS(=O)(=O)c1cc2c(cc1C(F)(F)F)NCNS2(=O)=O [Hydroflumethiazide] | > 45.8 | > 45.8
